Measurements: patent publication US20230286968A1, “ARYLOXAZOLO SPIRAL RING DERIVATIVES FOR THE TREATMENT AND PROPHYLAXIS OF HEPATITIS B VIRUS INFECTION” (Hoffmann-La Roche Inc., priority 2020, published 2023)

What was measured:
[1] = test system: HBeAg; test: PHH natural infection assay, HBeAg (alphalisa); format: cell-based, HBV; settings: Hepatitis B virus, Hepatocyte, read-out: HBeAg IC50, HBV-infected primary human hepatocytes, supernatant, alphalisa
Procedure: (§1) Detailed procedures regarding primary human hepatocyte (PHH) HBV natural infection assay are described as below. One tube of frozen PHH (10 million cells) is thawed in 37° C. water bath and then transferred to 20 mL of PHH thawing medium (Sigma, InVitroGRO HT Medium, Cat. S03319) with gently mixing. The cells were then centrifuged at […] for 5 min, the supernatant was discarded and the tube was refilled with 25 mL of PHH plating medium (Sigma, InVitroGRO CP Medium, Cat. S03317). The tube was shaken very gently to re-suspend all cells, and then 50 μL of cells were transferred to each well 384-well collagen I coated plate with appropriate liquid handling equipment, e.g. Integra VIAFLO384 or Agilent Bravo. The cells were then cultured for 24 hours in a cell incubator. For HBV infection, after PHH attachment on the culture plate, the plating medium was removed and replenished with PHH culture medium containing HBV virus. The PHH culture medium was prepared with Dulbecco's Modified Eagle Medium (DMEM)/F12 (1:1 in volume ratio) containing 10% fetal bovine serum (Gibco, Cat. 10099141), 5 ng/mL human epidermal growth factor (Gibco, Cat.PHG0311L), 20 ng/mL dexamethasone (Sigma, Cat.D4902-100 mg), 250 ng/mL human recombinant insulin (Gibco, Cat.41400045) and 100 U/mL penicillin. HBV virus at 200 genome equivalent (GE) per cell with 4% PEG8000 (Sigma, Cat.P1458) containing culture medium were added to the PHH culture medium for infection. The cells were then cultured for 24 hours in cell incubator. Then the cell culture supernatant was removed. The HBV-infected PHH were cultured with sandwich culture method with PHH culture medium containing […] and 0.25 mg/mL matrix gel for 72 hours. The supernatant was then refreshed with PHH culture medium containing different concentrations of testing compounds for two times with 72-hour interval. At the end of treatment, the supernatant was collected for viral markers measurements, including HBsAg, HBeAg, HBV DNA and cytotoxicity. HBsAg and HBeAg were detected using alphalisa method using their specific antibodies. For HBV DNA detection, HBV DNA Quantitative Fluorescence Diagnostic Kit (Sansure Biotech Inc.) was used following the manufacture's protocol. Cytotoxicity was determined using Cell Counting Kit-8 (CCK8, Dojindo Molecular Technologies, Inc.).
(§2) The compounds of the present invention were tested for their capacity to inhibit HBsAg and HBeAg as described herein.

[2] = Cytotoxicity in PHH natural infection assay (Cell Counting Kit-8); format: cell-based; settings: HBV-infected primary human hepatocytes, CCK8
Procedure: as §1

[3] = test system: HBsAg; test: PHH natural infection assay, HBsAg (alphalisa); format: cell-based, HBV; settings: Hepatitis B virus, Hepatocyte, read-out: HBsAg IC50, HBV-infected primary human hepatocytes, supernatant, alphalisa
Procedure: as §1, §2

Row | Compound | IC50 [1] [µM] | CC50 at 144 h [2] [µM] | IC50 [3] [µM]
1 | Cc1csc(-c2cc(C(=O)NC3CC4(C3)CC(c3nc5cc(Cl)ccc5o3)C4)ccn2)n1 (stereo not drawn) [Example 14, N-[6-(5-chloro-1,3-benzoxazol-2-yl)spiro[3.3]heptan-2-yl]-2-(4-methylthiazol-2-yl)pyridine-4-carboxamide] | 4.08 | > 10 | 6.36
2 | Cc1cnc(-c2cc(C(=O)NC3CC4(C3)CC(c3nc5cc(Cl)ccc5o3)C4)ccn2)s1 (stereo not drawn) [Example 15, N-[6-(5-chloro-1,3-benzoxazol-2-yl)spiro[3.3]heptan-2-yl]-2-(5-methylthiazol-2-yl)pyridine-4-carboxamide] | 1.47 | > 10 | 2.25
3 | O=C(NC1CC2(C1)CC(c1nc3cc(Cl)ccc3o1)C2)c1ccnc(-c2nccs2)c1 (stereo not drawn) [Example 16, N-[6-(5-chloro-1,3-benzoxazol-2-yl)spiro[3.3]heptan-2-yl]-2-thiazol-2-yl-pyridine-4-carboxamide] | 4.73 | > 10 | 5.78
4 | COc1cc(C(=O)NC2CC3(C2)CC(c2nc4cc(Cl)ccc4o2)C3)ccn1 (stereo not drawn) [Example 17, N-[6-(5-chloro-1,3-benzoxazol-2-yl)spiro[3.3]heptan-2-yl]-2-methoxy-pyridine-4-carboxamide] | 4.48 | > 10 | 5.45
5 | N#Cc1cc(C(=O)NC2CC3(C2)CC(c2nc4cc(Cl)ccc4o2)C3)ccn1 (stereo not drawn) [Example 18, N-[6-(5-chloro-1,3-benzoxazol-2-yl)spiro[3.3]heptan-2-yl]-2-cyano-pyridine-4-carboxamide] | 4.87 | > 10 | 4.86
6 | NS(=O)(=O)c1cc(C(=O)NC2CC3(C2)CC(c2nc4cc(Cl)ccc4o2)C3)ccn1 (stereo not drawn) [Example 19, N-[6-(5-chloro-1,3-benzoxazol-2-yl)spiro[3.3]heptan-2-yl]-2-sulfamoyl-pyridine-4-carboxamide] | 1.24 | > 10 | 2.25
7 | CC(C)Oc1cc(C(=O)NC2CC3(C2)CC(c2nc4cc(Cl)ccc4o2)C3)ccn1 (stereo not drawn) [Example 20, N-[6-(5-chloro-1,3-benzoxazol-2-yl)spiro[3.3]heptan-2-yl]-2-isopropoxy-pyridine-4-carboxamide] | 1.26 | > 10 | 1.92
8 | O=C(NC1CC2(C1)CC(c1nc3cc(Cl)ccc3o1)C2)c1ccnc(C(F)(F)F)c1 (stereo not drawn) [Example 21, N-[6-(5-chloro-1,3-benzoxazol-2-yl)spiro[3.3]heptan-2-yl]-2-(trifluoromethyl)pyridine-4-carboxamide] | 1.98 | 82 | 1.82
9 | CNS(=O)(=O)Nc1cc(C(=O)NC2CC3(C2)CC(c2nc4cc(Cl)ccc4o2)C3)ccn1 (stereo not drawn) [Example 22, N-[6-(5-chloro-1,3-benzoxazol-2-yl)spiro[3.3]heptan-2-yl]-2-(methylsulfamoylamino)pyridine-4-carboxamide] | 4.38 | > 10 | 4.94
10 | CS(=O)(=O)c1cc(C(=O)NC2CC3(C2)CC(c2nc4cc(Cl)ccc4o2)C3)ccn1 (stereo not drawn) [Example 23, N-[6-(5-chloro-1,3-benzoxazol-2-yl)spiro[3.3]heptan-2-yl]-2-methylsulfonyl-pyridine-4-carboxamide] | 0.49 | 94.1 | 0.57
11 | CS(=O)(=O)c1cncc(C(=O)NC2CC3(C2)CC(c2nc4cc(Cl)ccc4o2)C3)c1 (stereo not drawn) [Example 24, N-[6-(5-chloro-1,3-benzoxazol-2-yl)spiro[3.3]heptan-2-yl]-5-methylsulfonyl-pyridine-3-carboxamide] | 3.73 | > 100 | 5.99
12 | O=C(NC1CC2(C1)CC(c1nc3cc(Cl)ccc3o1)C2)c1ccnc(S(=O)(=O)C2COC2)c1 (stereo not drawn) [Example 25, N-[6-(5-chloro-1,3-benzoxazol-2-yl)spiro[3.3]heptan-2-yl]-2-(oxetan-3-ylsulfonyl)pyridine-4-carboxamide] | 2.53 | > 10 | 4.18
13 | CCS(=O)(=O)c1cc(C(=O)NC2CC3(C2)CC(c2nc4cc(Cl)ccc4o2)C3)ccn1 (stereo not drawn) [Example 26, N-[6-(5-chloro-1,3-benzoxazol-2-yl)spiro[3.3]heptan-2-yl]-2-ethylsulfonyl-pyridine-4-carboxamide] | 0.19 | 74.1 | 0.28
14 | CC(C)(C)C(=O)NC1CC2(C1)CC(c1nc3cc(Cl)ccc3o1)C2 (stereo not drawn) [Example 27, N-[6-(5-chloro-1,3-benzoxazol-2-yl)spiro[3.3]heptan-2-yl]-2,2-dimethyl-propanamide] | 9.75 | > 100 | 9.77
15 | CC(C)CC(=O)NC1CC2(C1)CC(c1nc3cc(Cl)ccc3o1)C2 (stereo not drawn) [Example 28, N-[6-(5-chloro-1,3-benzoxazol-2-yl)spiro[3.3]heptan-2-yl]-3-methyl-butanamide] | 2.28 | > 100 | 2.54
16 | O=C(NC1CC2(C1)CC(c1nc3cc(Cl)ccc3o1)C2)C1CC(C(F)(F)F)C1 (stereo not drawn) [Example 29, N-[6-(5-chloro-1,3-benzoxazol-2-yl)spiro[3.3]heptan-2-yl]-3-(trifluoromethyl)cyclobutanecarboxamide] | 3.82 | > 100 | 4.67
17 | CN1CC(C(=O)NC2CC3(C2)CC(c2nc4cc(Cl)ccc4o2)C3)CC1=O (stereo not drawn) [Example 30, N-[6-(5-chloro-1,3-benzoxazol-2-yl)spiro[3.3]heptan-2-yl]-1-methyl-5-oxo-pyrrolidine-3-carboxamide] | 2.65 | > 100 | 3.89
18 | CC(C)(C)N1CC(C(=O)NC2CC3(C2)CC(c2nc4cc(Cl)ccc4o2)C3)CC1=O (stereo not drawn) [Example 31, 1-tert-butyl-N-[6-(5-chloro-1,3-benzoxazol-2-yl)spiro[3.3]heptan-2-yl]-5-oxo-pyrrolidine-3-carboxamide] | 5.24 | > 100 | 7.87
19 | O=C(NC1CC2(C1)CC(c1nc3cc(Cl)ccc3o1)C2)C1CC(=O)N(c2ccccc2)C1 (stereo not drawn) [Example 32, N-[6-(5-chloro-1,3-benzoxazol-2-yl)spiro[3.3]heptan-2-yl]-5-oxo-1-phenyl-pyrrolidine-3-carboxamide] | 5.44 | > 100 | 8.27
20 | Cc1c(Cl)cccc1N1CC(C(=O)NC2CC3(C2)CC(c2nc4cc(Cl)ccc4o2)C3)CC1=O (stereo not drawn) [Example 33, N-[6-(5-chloro-1,3-benzoxazol-2-yl)spiro[3.3]heptan-2-yl]-1-(3-chloro-2-methyl-phenyl)-5-oxo-pyrrolidine-3-carboxamide] | 3.07 | 42.8 | 3.24
21 | CN1CCC(C(=O)NC2CC3(C2)CC(c2nc4cc(Cl)ccc4o2)C3)CC1=O (stereo not drawn) [Example 34, N-[6-(5-chloro-1,3-benzoxazol-2-yl)spiro[3.3]heptan-2-yl]-1-methyl-2-oxo-piperidine-4-carboxamide] | 4.42 | > 100 | 8.69
22 | CN1CC(CC(=O)NC2CC3(C2)CC(c2nc4cc(Cl)ccc4o2)C3)CC1=O (stereo not drawn) [Example 35, N-[6-(5-chloro-1,3-benzoxazol-2-yl)spiro[3.3]heptan-2-yl]-2-(1-methyl-5-oxo-pyrrolidin-3-yl)acetamide] | 7.28 | > 10 | 9.93
23 | CN1C(=O)CCC1CC(=O)NC1CC2(C1)CC(c1nc3cc(Cl)ccc3o1)C2 (stereo not drawn) [Example 36, N-[6-(5-chloro-1,3-benzoxazol-2-yl)spiro[3.3]heptan-2-yl]-2-(1-methyl-5-oxo-pyrrolidin-2-yl)acetamide] | 3.72 | > 10 | 4.05
24 | O=C1CCC(CC(=O)NC2CC3(C2)CC(c2nc4cc(Cl)ccc4o2)C3)N1 (stereo not drawn) [Example 37, N-[6-(5-chloro-1,3-benzoxazol-2-yl)spiro[3.3]heptan-2-yl]-2-(5-oxopyrrolidin-2-yl)acetamide] | 3.75 | > 10 | 6
25 | NS(=O)(=O)CCC(=O)NC1CC2(C1)CC(c1nc3cc(Cl)ccc3o1)C2 (stereo not drawn) [Example 38, N-[6-(5-chloro-1,3-benzoxazol-2-yl)spiro[3.3]heptan-2-yl]-3-sulfamoyl-propanamide] | 5.49 | > 10 | 9.48
